Measurements from patent publication US7947839B2, “Heterocyclic-substituted bis-1,8 naphthalimide compounds, antibody drug conjugates, and methods of use” (Genentech, Inc., priority 2004, dated 2011).
Structures can show the parent of a compound that is named as a salt. Where two headings read alike, the source gives them in different places.

Legend:
[1] = test system: BT474, H460, HCT116, HUVEC, LNCAP, MCF7, and PC3 cells; test: free test compound cell-based assay, 7 tumor cell panel (CellTiter-Glo); design: species or system Human; settings: Homo sapiens, NSA = no significant activity
Method: Heterocyclic-substituted bis-1,8-naphthalimide compounds of Formula XV in Table 2 were prepared and tested for in vitro activity against a panel of tumor cells (Example 110).
Alternatively, the efficacy of compounds of the invention can be assayed by the following free test compound cell-based assay protocol
• 1. Prepare each cell line (BT474, H460, HCT116, HUVEC, LNCaP, MCF7, and PC3) at 1 k cells/well in separate plates with Complete Media (CM): RPM1 […]+10% FBS (Fetal Bovine Serum)+1% of 200 mM L-Glutamine. Plate number depends on test compounds provided by submitter. • 2. Detach prospective cell lines by first removing the media. When the flask is empty of media, begin rinsing out individual flasks with 5 mL sterile PBS. Move the PBS around within the flask to rinse well. Decant the PBS and add aseptically 5 mL of Accutase/flask. Make sure the Accutase covers the entire flask. • 3. Immediately place the flask(s) into a 37° C. incubator to allow cells to detach for 5-7 minutes. • 4. Post 5-7 minutes, remove flask(s) from the incubator and begin harvesting the detached cells using a serological pipette. Pipette up and down along the back of the flask to facilitate cell detachment. Pipette the Accutase containing cells into a sterile 50 mL conical tube/cell line. Pipette 10 mL of sterile PBS and re-rinse the flask to obtain remaining cells and dispense it into the same 50 mL conical tube/cell line for a total volume of 15 mL/tube/cell line. • 5. After each cell line has been allocated to a designated tube, take out 100 μL/tube/cell line for the cell counts. While the cell counts are being calculated, centrifuge the 50 mL tubes at 1000 rpm at 4° C. with a high brake. • 6. When centrifugation and cell calculations are completed, decant excess liquid and resuspend the cell pellet(s) using 5 mL CM, depending on calculations. • 7. Using a 5 mL syringe and an 18 G ½ needle, strain the cells to help prevent aggregation. Further strain by using a […] cell filter to block out any huge aggregates not broken down by the needle. • 8. After cell straining and filtering, take out calculated amount for a 1 k cells/well into fresh media. Take the media containing cells and load 100 μL/well into a bottom tissue culture treated flat 96 well plate. • 9. Immediately place in a 37° C. incubator overnight to allow the cells to adhere to the tissue culture treated 96 well plates. Day 2: • 1. Test compounds are submitted at 10 mM in sterile DMSO. • 2. DMSO as negative control and a positive standard are used in every assay! • 3. Prepare a 1:1000 fold dilution for each test compound, control, and standard for a 10e-5 M starting point. Do a 1:100 first, then a 1:10. • 4. Prior to diluting samples, vortex the samples and the controls for a homogeneous mixture. Note any sample that will not solubilize and/or stay in suspension. • 5. When the samples are at 10e-5 M, vortex each tube well and spin down fluid to ensure sample remains in tacked. Manual Dilution Protocol: • 1. After the tubes are at a final 1:1000 (10e-5 M) dilution, load the first column of the microtube box with the prospective sample. Load DMSO and positive control in singlets. The test compounds are loaded in duplicates. Load the remaining empty microtube racks with 540 μL of media to prepare for a serial dilution of 1:10. • 2. Agitate and transfer 60 μL from column 1 into successive wells containing 540 μL of media (1:10). Therefore, transfer 60 μL of column 1 into 540 μL of column 2. Resuspend column 2 about 10-15×'s then transfer 60 μL from column 2 to column 3 etc. Automated Dilution Protocol: • 1. Once the tubes are at a final 1:1000 (10e-5 M), load the first column of the microtube box with the prospective sample. Load DMSO and positive control in singlets. The compounds are loaded in duplicates. Load the remaining empty microtube racks manually with 540 μL of media to prepare for the automated serial dilution of 1:10 (see above diagram). • 2. […]

[2] = test system: human lung (LX-1) carcinoma xenograft; settings: in vivo; cited from earlier work
[3] = test system: MX-1 (mammary carcinoma) xenografts; settings: iv five daily doses at 20 mg/kg (2 cycles), or every 3 days for two doses at 55 mg/kg (2 cycles), or weekly for four doses; cited from earlier work
[4] = molecular target: T1, topoisomerase I isolated from calf thymus (Bos taurus, UniProt F1MN93); settings: supercoiled DNA relaxation assay; cited from earlier work
T1 construct: topoisomerase I isolated from calf thymus; from tissue; host or cells: calf thymus
T1 sequence (F1MN93 1-767): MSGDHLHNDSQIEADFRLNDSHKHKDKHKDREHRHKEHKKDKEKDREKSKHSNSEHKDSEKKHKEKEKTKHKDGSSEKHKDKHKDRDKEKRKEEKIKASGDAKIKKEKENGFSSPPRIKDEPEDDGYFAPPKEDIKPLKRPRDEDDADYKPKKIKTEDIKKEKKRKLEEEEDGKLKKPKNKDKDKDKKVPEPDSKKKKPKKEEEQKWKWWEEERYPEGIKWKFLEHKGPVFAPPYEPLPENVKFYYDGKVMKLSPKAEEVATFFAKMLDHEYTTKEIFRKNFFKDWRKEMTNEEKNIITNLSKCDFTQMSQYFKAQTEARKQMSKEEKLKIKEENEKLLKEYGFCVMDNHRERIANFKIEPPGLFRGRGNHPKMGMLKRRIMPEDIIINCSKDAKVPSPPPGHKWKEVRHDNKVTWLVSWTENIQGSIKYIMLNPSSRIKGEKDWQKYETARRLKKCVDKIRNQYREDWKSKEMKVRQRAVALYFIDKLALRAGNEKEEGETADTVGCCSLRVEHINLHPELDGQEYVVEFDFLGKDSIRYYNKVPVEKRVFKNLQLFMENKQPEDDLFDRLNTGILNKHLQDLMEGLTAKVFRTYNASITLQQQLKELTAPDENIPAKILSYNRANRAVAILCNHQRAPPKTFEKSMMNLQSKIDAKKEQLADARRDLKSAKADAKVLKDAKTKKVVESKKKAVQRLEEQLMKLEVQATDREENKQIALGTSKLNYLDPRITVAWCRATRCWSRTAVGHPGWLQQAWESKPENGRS

[5] = test system: human colon (CX-1) carcinoma xenograft; settings: in vivo; cited from earlier work
[6] = test system: mouse xenograft models; settings: repeated dosing regimens; no strong schedule dependency; cited from earlier work
[7] = test system: topoisomerase II; settings: unlike most other known topoisomerase II inhibitors; cited from earlier work
[8] = test system: human melanoma (LOX); settings: in vivo; cited from earlier work
[9] = average linear IC50 across the 7 tumor cell panel, read-out: Avg.
[10] = average log IC50 across the 7 tumor cell panel, read-out: Avg. (log IC50) (converted)

| SMILES | IC50 [1, 9] [nM] | IC50 [1, 10] [nM] | also measured |
| --- | --- | --- | --- |
| O=C1c2cccc3c(N4CCNCC4)ccc(c23)C(=O)N1CCNCCNCCN1C(=O)c2cccc3c(N4CCNCC4)ccc(c23)C1=O [Compound 58b, N, N′-(bis-aminoethyl-1,2-ethanediamine)-bis-4-piperazino-1,8 naphthalimide] | 26.9 | 26.9 | – |
| O=C1c2cccc3c(N4CCNCC4)ccc(c23)C(=O)N1CCN1C=[N+](CCN2C(=O)c3cccc4c(N5CCNCC5)ccc(c34)C2=O)CCC1 [Compound 59, N, N′-(bis-aminoetbyl-1,4,5,6-tetrahydropyrimidinium)-bis-4-piperazino-1,8 naphthalimide trifluoroacetate salt] | 1.51 | 1.51 | – |
| CN1CCN(c2ccc3c4c(cccc24)C(=O)N(CCNCCNCCN2C(=O)c4cccc5c(N6CCN(C)CC6)ccc(c45)C2=O)C3=O)CC1 [Compound 60, N, N′-(bis-aminoethyl-1,2-ethanediamrne)-bis-4-(4-methylpiperazino)-1,8 naphthalimide] | 1.05 | 1.05 | – |
| CN1CCN(c2ccc3c4c(cccc24)C(=O)N(CCNCCNCCN2C(=O)c4cccc5c(Br)ccc(c45)C2=O)C3=O)CC1 [Compound 61, N, N′-(bis-aminoethyl-1,2-ethanediamine)-4-piperazino,4-bromo-1,8 naphthalimide] | 40.7 | 40.7 | – |
| CC(=O)c1ccc2c3c(cccc13)C(=O)N(CCNCCCNCCN1C(=O)c3cccc4c(N5CCOCC5)ccc(c34)C1=O)C2=O [Compound 62, N, N′-(bis-aminoethyl-1,3-propanediamine)-4-acetyl,4-morpholino-1,8 naphthalimide] | 4.57 | 4.57 | – |
| CC(=O)N1CCN(c2ccc3c4c(cccc24)C(=O)N(CCNCCNCCN2C(=O)c4cccc5c(N6CCN(C(C)=O)CC6)ccc(c45)C2=O)C3=O)CC1 [Compound 63a, N, N′-(bis-aminoethyl-1,2-ethanediamine)-bis 4-(4-acetylpiperazino)-1,8 naphthalimide] | 4.47 | 4.47 | – |
| CC(=O)N1CCN(c2ccc3c4c(cccc24)C(=O)N(CCN2C=[N+](CCN4C(=O)c5cccc6c(N7CCN(C(C)=O)CC7)ccc(c56)C4=O)CC2)C3=O)CC1 [Compound 63b, N, N′-(bis-aminoethy-4,5-dihydro-imidazolium)-bis 4-(4-acetylpiperazino)-1,8 naphthaliinide] | 251 | 251 | – |
| CC(=O)N1CCN(c2ccc3c4c(cccc24)C(=O)N(CCNCCCNCCN2C(=O)c4cccc5c(N6CCN(C(C)=O)CC6)ccc(c45)C2=O)C3=O)CC1 [Compound 63c, N, N′-(bis-aminoethyl-1,3-propanediamine)-bis-4-(4-acetylpiperazino)-1,8 naphthalimide] | 1.1 | 1.1 | – |
| CC(=O)N1CCN(c2ccc3c4c(cccc24)C(=O)N(CCNCCCNCCN2C(=O)c4cccc5c(N(C)C)ccc(c45)C2=O)C3=O)CC1 [Compound 64, N, N′-(bis-aminoethyl-1,3-propanediamine)-4-(4-acetylpiperazino)-4-dimethylamino-1,8 naphthalimide] | 1.82 | 1.82 | – |
| O=C1c2cccc3c(O)ccc(c23)C(=O)N1CCNCCCNCCN1C(=O)c2cccc3c(-n4ccnc4)ccc(c23)C1=O [Compound 65, N, N′-(bis-aminoethyl-1,3-propanediamine)-4-(N-imidazolyl)-4-hydroxyl-1,8 naphthalimide] | 288 | 288 | – |
| O=C1c2cccc3cccc(c23)C(=O)N1CCNCCCNCCN1C(=O)c2cccc3cccc(c23)C1=O [elinafide] | – | – | tumor regression in human lung (LX-1) carcinoma xenograft model [2]: partial and complete tumor regression, as well as some cures; regression of MX-1 (mammary carcinoma) xenografts [3]: complete regression; IC50 [4]: 5000 nM; tumor regression in human colon (CX-1) carcinoma xenograft model [5]: partial and complete tumor regression, as well as some cures; antitumor activity [6]: demonstrated antitumor activity; DNA cleavage [7]: does not cause significant DNA cleavage; efficacy in human melanoma (LOX) models [8]: curative |
